Here are results for eleven molecules from patent publication US5602110A, “Method and composition for treating cystic fibrosis” (Case Western Reserve University, priority 1995, dated 1997).

Structures are written as SMILES.

In assay [1] the test system is CF nasal polyp epithelial cells homozygous for the ΔF508 mutation. Put plainly: 36Cl chloride efflux assay in primary CF nasal polyp epithelial cells. Conditions: for chloride efflux rate increase (chloride transport) in the CF cells: primary CF nasal polyp cells, isoproterenol 10 μM, milrinone 100 μM or IBMX 100 μM as labelled. The assay is classed as cell-based, human. The procedure:
A test was run to confirm that the chloride efflux in primary CF cells (as opposed to CF-T43 cells used above) is mediated by the cAMP-dependent, protein kinase A pathway and not by calcium-dependent chloride channels. Efflux assays were carried out on primary CF cells, being CF nasal polyp epithelial cells homozygous for the ΔF508 mutation. Any significant contribution of calcium-activated chloride channels was ruled out by incubating the cells in BAPTA-AM, and comparing the response induced by ionomycin to that of albuterol combined with milrinone.
Transformed cell lines often have altered properties relative to the tissues from which they were derived. To determine if the responses seen in the transformed CF-T43 cells were representative of primary tissue cells, primary epithelial cells from CF nasal polyps were assayed for chloride efflux. Tissues were obtained from nasal polypectomies of CF patients and epithelial cells were isolated by digesting cells from basement membrane by collagenase followed by low speed centrifugations. After counting viable cells, cells were plated and assayed in the same way as the CF-T43 cells. A total of 5 such experiments were performed with polyp cells from different, unrelated patients.
The effects of these compounds on chloride permeability were measured as the rate of ^36 Cl efflux after stimulation divided by the basal rate, given as rstim /rbas. […] Both CF types are homozygous for the ΔF508 mutation.

Assay [2] relates to CF-T43 cells (ΔF508 CFTR). Put plainly: 36Cl chloride efflux assay in CF-T43 cells. Format: cell-based. Particulars: for chloride efflux: agent(s) as labelled, no other drug, FIG. 1, FIG. 2; for effect of added agent on chloride efflux stimulated by isoproterenol and milrinone: added to milrinone and isoproterenol, FIG. 2; for chloride efflux rate increase (chloride transport) in the CF cells: CF-T43, isoproterenol 10 μM, milrinone 100 μM or IBMX 100 μM as labelled. The method, then: (§1) Two independent cell lines, Calu-3 and 16HBE, both derived from airway epithelial cells and both expressing normal CFTR (Shen et al., 1994; Haws et al., 1994; Haws et al., 1992) were assayed for increased Cl transport either by a radioisotopic flux assay or electrophysiologically. Using the method of Venglarik et al. (1990), cells were incubated in a Ringer's solution containing ^36 Cl to allow uptake of isotope into the cells, and then washed to remove external isotopic chloride. Efflux was measured by replacing the incubation solution every 30 seconds and quantitating the amount of ^36 Cl secreted into it. After 6 changes of solution (3 minutes), either drugs or placebos were added to the media. […] Efflux was then measured an additional 12 media changes (6 minutes).
CF-T43 is an SV40 T-antigen transformed cell line derived from a CF nasal turbinate (Jetten, et al., 1989). These cells maintain many of the original epithelial characteristics, including defective cAMP-dependant chloride transport, and have been used as a model for CF airway cells, CF-T43 cells carry and express only the ΔF508 CFTR mutation. […] With reference to FIG. 1, the control efflux contains Hepes-buffered Ringer's solution (HBR) +0.2% dimethylsulfoxide (DMSO), which is the concentration of DMSO in which the drugs were dissolved. The arrow indicates when the drugs were added. Iso means isoproterenol; Mil means milrinone.

Assay [3] deals with mutant CFTR in CF epithelial cells. Conditions: Grubb et al. 1992; cited from earlier work.
Assay [4] concerns ΔF508 CFTR in Xenopus laevis oocytes. Particulars: high concentrations of IBMX with relatively low concentrations of forskolin; cited from earlier work.
Assay [5] relates to Calu-3 and 16HBE airway epithelial cells expressing normal CFTR. Kind of assay: 36Cl chloride efflux assay in airway epithelial cell lines expressing normal CFTR. The assay is classed as cell-based. Particulars: 100 μM each drug alone; Calu-3 and 16HBE cells. The procedure: The nomenclature for cyclic nucleotide phosphodiesterases, as follows, is taken from Beavo (1990).
as §1

Assay [6] has as its system cellular cAMP in CF-T43 cells. Conditions: in combination with isoproterenol 10 μM.
For assay [7], the system named is normal CFTR in 293 cells. Conditions: forskolin alone; normal type-transfected 293 cells.
Assay [8] has as its system 16HBE cells. Put plainly: Whole-cell voltage clamp. The assay is classed as cell-based. The method, then: Whole-cell voltage clamp was used to confirm that the chloride efflux was consistent with CFTR activation. 16HBE cells were exposed to varying concentrations of milrinone and the membrane potential clamped in increments of 10 mV from -150 mV to +50 mV. The resulting current was then plotted as a function of voltage. […] A linear current/voltage relationship is a characteristic of CFTR activation. If currents are carried by chloride there should be a reduction in current at any given voltage when chloride is replaced by an ion to which CFTR is impermeante, such as gluconate.

Setting [9] is: 100 μM glibenclamide, CF-T43 cells.

With `CNCCNS(=O)(=O)c1cccc2cnccc12` [H-8, N[-2-(methylamino)ethyl]-5-isoquinoline sulfonamide], the “effect of preincubation on the isoproterenol/milrinone chloride efflux response” value in assay [1] (CF nasal polyp cells preincubated in H-8) is on record as “dramatically reduced”.

For the molecule `CC(C)Cn1c(=O)n(C)c(=O)c2[nH]cnc21` [IBMX, 3-isobutyl-1-methylxanthine], the chloride efflux result in assay [2] (CF-T43 cells) is “not provide an increase in efflux rate”. Also, the “activation of a chloride conductance” value in assay [3] is “unable to activate a chloride conductance”. For the same molecule, in assay [4], the “activation of ΔF508 CFTR” value is listed as “could be activated”. The “increase in chloride efflux rate” value in assay [5] is on record as “Only the inhibitors specific for type III phosphodiesterases produced detectable increases”.

As to `Nc1ncnc2c1ncn2[C@@H]1O[C@@H]2CO[P@@](O)(=S)O[C@H]2[C@H]1O` [Rp-cAMPS], the “effect of added agent on chloride efflux stimulated by isoproterenol and milrinone” value in assay [2] (CF-T43 cells) is “abolished the increase in chloride efflux”.

In the case of `Nc1ncnc2c1ncn2[C@@H]1O[C@@H]2COP(O)(=S)O[C@H]2[C@H]1O` (stereo partly shown) [Sp-cAMPS, Sp-adenosine 3':5'-cyclic phosphorothioate], in assay [2] (CF-T43 cells), the “effect of added agent on chloride efflux stimulated by isoproterenol and milrinone” value is “enhanced”; the chloride efflux result was “no effect on chloride efflux”.

As to `Nc1cc(-c2ccncc2)c[nH]c1=O` [amrinone], in assay [6] (15 minutes, CF-T43 cells), the “increase in cellular cAMP over baseline” value is “same as milrinone”. Besides, in assay [5], the “increase in chloride efflux rate” value is on record as “greatest increase in chloride efflux rate”.

For the molecule `C=C[C@@]1(C)CC(=O)[C@]2(O)[C@@]3(C)[C@@H](O)CCC(C)(C)[C@@H]3[C@H](O)[C@H](OC(C)=O)[C@@]2(C)O1` [forskolin], the “activation of chloride efflux” value in assay [7] was “sufficient to activate”.

As for `COc1ccc(Cl)cc1C(=O)NCCc1ccc(S(=O)(=O)NC(=O)NC2CCCCC2)cc1` [glibenclamide], in assay [2] (setting [9]), the “effect on efflux elicited by ionomycin” value was “little effect” and the “inhibition of β-adrenergic agonist/milrinone-stimulated efflux” value is on record as “completely inhibited”.

As to `C[C@H](CCC(=O)O)C[C@H](C)C[C@H](C)C(=O)/C=C(\O)[C@H](C)C[C@H](C)C/C=C/[C@@H](C)[C@@H](O)[C@@H](C)[C@@H](O)C[C@@H]1CC[C@@](C)([C@H]2CC[C@@](C)([C@@H](C)O)O2)O1` [ionomycin], the “chloride efflux response relative to the isoproterenol/milrinone response” value in assay [2] (CF-T43 cells) is “greater than the isoproterenol/milrinone response”. Also, the “chloride efflux response in the presence of BAPTA-AM” value in assay [2] (CF-T43 cells, BAPTA-AM added) is listed as “eliminated”; in assay [1] (primary CF nasal polyp cells incubated in BAPTA-AM), “eliminated”.

For the molecule `CC(C)NCC(O)c1ccc(O)c(O)c1` (stereo not shown) [isoproterenol], the “chloride efflux rate increase (chloride transport) in the CF cells” value in assay [2] and in assay [1] was “neither agent alone elicited a rate increase” in each case. In addition, the chloride efflux entry in assay [2] (CF-T43 cells) is listed as “no effect on chloride efflux”.

On to `Cc1[nH]c(=O)c(C#N)cc1-c1ccncc1` [milrinone], for which the “chloride efflux rate increase (chloride transport) in the CF cells” value in assay [2] and in assay [1] was “neither agent alone elicited a rate increase” throughout. The “reversal potential of current” value in assay [8] (all concentrations of milrinone) is recorded as 0 mV. Also, the “current when chloride was replaced by gluconate” value in assay [8] (chloride replaced by gluconate) is “reduction of current”. The “dose dependence of effect on whole-cell current” value in assay [8] (varying concentrations) is given as “dose-dependent”. Moreover, in assay [8] (varying concentrations of milrinone, clamp -150 mV to +50 mV), the current/voltage relationship entry is on record as “linear”. In addition, the “cAMP increase compared with isoproterenol alone” value in assay [6] was “not significantly above that of isoproterenol alone”. For the same molecule, the “increase in chloride efflux rate” value in assay [5] is “greatest increase in chloride efflux rate”.

Consider `COc1ccc(C2CNC(=O)C2)cc1OC1CCCC1` (stereo not shown) [rolipram], for which the “increase in chloride efflux rate” value in assay [5] is “Only the inhibitors specific for type III phosphodiesterases produced detectable increases”.
